# Reference: US8524222B2, “Bacillus isolates and methods of their use to protect against plant pathogens and virus transmission” (Montana State University, priority 2006, dated 2013)
# Several values for one entry are separate records, joined by “and”; a condition that tells them apart may be missing. Identical values can stand only once.
# What was measured:
# [1] = tested on: Botrytis cinerea; parameters: species or system Arabidopsis thaliana; details: in vivo
# [2] = tested on: C. beticola; assay: Field studies of Cercospora leaf spot control, Sidney, Mont.; parameters: species or system sugar beet; details: in vivo
# Method: Field studies were conducted at the Eastern Agricultural Research Center in Sidney, Mont. from 1996 through 2003. Sugar beet variety ‘Beta 1996’ was planted the first year, VDH 66140 was planted the second year, HH88 the third year, KW2262 the fourth year and Beta 2185 the fifth, sixth, and seventh years. All cultivars were equally susceptible to C. beticola infection (BetaSeed, Shakopee, Minn., U.S.A.). […] In the last two years, freshly grown, washed cells were harvested from a 24 h tryptic soy broth culture grown at room temperature and prepared as described above, and applied to the plants. Fungicide treatments included triphenyltin hydroxide (TPTFI, SuperTin, Griffin L.L.C.), propiconazole (Tilt, Syngenta Crop Protection, Inc) and tetraconazole (Eminent, Sipeam Agro USA Inc.) that were applied at 390, 253 and 876 g ai ha^−1, respectively. All treatments were applied at 1761 ha^−1 using a CO2 backpack sprayer with a 4-nozzle boom starting at disease onset and continued at 14 day intervals for a total of four sprays. Plots were arranged “in a randomized complete block design. with six replicates per treatment. […] Area under the disease progress curve (AUDPC) was calculated for treated and untreated plants and percent disease control was determined as follows: 1-([…])*100. […]
# [3] = tested on: NPR1; parameters: species or system sugar beet; details: in vivo
# [4] = tested on: Chitinase; assay: Glycol chitin plate assay for chitinase activity (screening); assay type: in vivo, sugar beet; details: cumulative results, 6 days after treatment
# Method: (§1) The leaf penultimate to the oldest true leaf was treated with one of the Bacillus strains. […] The plants were kept at 28+/−2° C. for 6 days at which time the apoplastic proteins were collected as described by Klement (1965), with the following modification: a buffer containing 150 mM NaCl and 25 mM MES, pH 6.2, was substituted for distilled water. The proteins were quantified by Bradford reagent (Bio-Red) using bovine serum albumin as standards and frozen at −80° C. until analyzed.
# Apoplastic protein (0.009, 0.006, and 0.005 ug for each sample in replicates of 3) was added to wells in a 1% agarose gel containing 0.01% glycol chitin in a 14 cm diameter glass petri plate, along with chitinase standards (Streptomyces griseus, Sigma). The plates were incubated at 37° C. for 24 hours. Following incubation. 50 ml of 500 mM Tris-HCl (pH 8.9) containing 0.01°/fluorescent brightener was added to the plate for 10 min. The plate was then rinsed three times with distilled water, flooded with water, and allowed to destain in the dark for 2-24 hours. The non-fluorescent lytic zones on a fluorescent background were measured while the plate was on a 302 nm UV light source. Specific activity (mg of N-acetyl-D-glucosamine released/hr/mg of apoplastic protein) was determined by comparison of the lyric zone diameter of the standards and the apoplastic samples (Velasquez. 2002).
# [5] = tested on: chitinase and B-1,3-glucanase; assay: Combined glycol chitin and aniline blue plate assays as predictor of SAR induction; assay type: in vivo, sugar beet; parameters: key: ✓: correctly identified all SAR-inducing isolates, indicated by check marks in Table 5; details: identified as SAR-inducer by increased activity of both defense proteins
# Description: There may be circumstances where the occurrence of chitinase and B-glucanase alone is not correlated with disease control (Punja, 2001), especially with fungal pathogens, since the enzymes function synergistically (Melchers and Stuiver, 2000). Therefore examination of the defense proteins together provides a more accurate prediction of disease control capability. Based on the assumption that increased activity for both defense proteins indicated SAR-inducing capacity, combined results from the glycol chitin and aniline blue plate assays correctly identified all SAR-inducing isolates, indicated by check marks in Table 5.
# [6] = tested on: hydrogen peroxide production; assay: Phenol red oxidation assay for biphasic hydrogen peroxide production in protoplasts and leaf disks; assay type: cell-based, sugar beet
# Method: Sugar beet protoplasts were isolated from sugar beet leaves to provide a medium to measure hydrogen peroxide production. Sugar beet leaves were gently brushed on the adaxial and abaxial surfaces with a 50 ft bristle brush to create small abrasions. The leaves were then cut into 1 cm strips and vacuum infiltrated for 5 min with 0.7 M sucrose containing 3.8% CaCL2, CPW salts (Frearson et al, 1973), 1.2% cellulase (Sigma), and 0.4% macerozyme (ICN Biomedicals). The infiltrated leaves were incubated in the 0.7M sucrose-salt and enzyme solution for 24-48 hours in the dark. […]
# To determine if the Bacillus strains elicited biphasic hydrogen peroxide production in sugar beet, phenol red oxidation assays were performed according to Pick and Keisari (1980). […] The amount of hydrogen peroxide produced from protoplasts in response to treatment with a Bacillus control agent was calculated as follows: amount of hydrogen peroxide produced in Bacillus protoplast reactions—(amount of hydrogen peroxide produced in protoplast only reactions+amount of hydrogen peroxide produced in Bacillus-only reaction). The amount of hydrogen peroxide produced by the leaf disks in response to Bacillus treatment was calculated as follows: amount of hydrogen peroxide produced by Bacillus-treated leaf disks-amount of hydrogen peroxide produced by leaf disks only reaction.
# [7] = tested on: Cercospora beticola; parameters: species or system sugar beet; details: in vivo
# [8] = tested on: Peroxidase; assay: Apoplastic peroxidase activity (guaiacol reagent); assay type: in vivo, sugar beet; details: distal leaves, six days post treatment
# Method: The concentration of protein as adjusted to give a change in absorbance units greater than 0.100, but less than 0.200, per minute. Specific activity was expressed as the increase inabsorbance (A470) over time (2 min) per mg of protein, as determined using Bradford reagent (BioRAD).
# [9] = tested on: Fusarium culmorum isolate 2279; parameters: species or system spring wheat; details: in vivo
# [10] = tested on: salicylic acid; parameters: species or system sugar beet; details: in vivo
# [11] = tested on: Cercospora beticola; parameters: species or system sugar beet; details: in vivo; remark: listed apart in the source
# [12] = tested on: B-1,3-glucanase; assay: B-1,3-glucanase specific activity of apoplastic protein (glucose release from laminarin); assay type: in vivo, sugar beet; details: distal leaves, six days post treatment
# Method: (§2) One leaf per replicate was collected for each treatment and immediately placed in buffer (150 mm NaCl, 25 mm MES, pH 6-2). Apoplast extractions were collected as described by Klement having substituted buffer (150 mM NaCl, 25 mm MES. pH 6.2) for water.
# The specific activity of sugar beet apoplastic B-1,3-glucanase was determined by measuring the release of glucose units from laminarin. Sodium acetate buffer (100 IJI, pH 5.0, 100 mM) containing 0.5% laminarin and 0.5 ug-2.0 ug apoplastic protein (plants per treatment replicated 3 times) was incubated at 3rc for 30-60 min. Following incubation, 900 ul of water and 1 ml of alkaline copper reagent was added to each 2 reaction. The tubes were then placed into a boiling water bath for 10 min. After cooling on ice, 1 ml arsenomolybdate color reagent was added to each reaction. Once the bubbling had subsided, 10 ml of water were added to each tube before reading the A660.
# [13] = tested on: Chitinase; assay: Chitinase specific activity of apoplastic protein by plate assay, six days post treatment; assay type: in vivo, sugar beet; details: distal leaves
# Method: as §2
# Chitinase Specific Activity Determination by Plate Assay Sodium phosphate buffer (pH 5.0, 0.01 M) containing 1 agarose and 0.1% glycol chitin was added to a 9 cm diameter glass petri dish. Wells, 3 mm diameter, were excised from the agarose (three per sample for each of the three replicates per treatment). Dilutions of apoplastic protein (0.7, 0.35, and 0.23 ug) and chitinase standards (chitinase from Streptomycesgriseus Sigma) were loaded into the wells. The plate was incubated at 37° C. for 24 h. Following the incubation, 50 ml of 500 mMTris-HCl (pH 8.9) containing 0.01% fluorescent brightener was added to the plate and incubated for 10 min. The plate was then quickly rinsed 3× with water, flooded with water, and destained overnight in the dark. Non-fluorescent lytic regions on a fluorescent background were measured while the plate was on an uv light source. Specific activity (mg of N-acetyl-n-glucosamine released /hr /mg of apoplastic protein) was determined by comparison of the diameters of the lytic regions for the standards and the lytic regions for the apoplastic protein samples [55]. Results
# [14] = tested on: B-1,3-glucanase; assay: Aniline blue plate assay for B-glucanase activity (screening); assay type: in vivo, sugar beet; details: cumulative results, 6 days after treatment
# Method: as §1
# Apoplastic protein (0.75, 0.50, and 0.25 ug for each sample in replicates of 3) was added to 3-mm diameter wells in a 0.5% agarose gel containing 0.005% aniline blue (MCB) and 0.5m.1/ml laminarin (from Laminaria digitata, Sigma) in a 14 cm diameter glass petri plate, along with laminarinase (Penicillium spp., Sigma) standards (2×10.5−2×10^−3 units of lamina˜inase). The plates were incubated at 30° C. for 18-24 hours. Following Incubation, the pink lytic zones on a blue background were measured while the plate was on a white light source. Specific activity (ug of glucose released/min/mg of apoplastic protein) was determined by comparison of the lytic zone diameter of the standards and the apoplastic samples.
compound,measurement,setting,value
"O=P(O)(O)CCCl [ethephon, 2-chloroethylphosphonic acid]",% disease reduction in comparison to distilled water,[1],28.1 b %
"[OH][Sn]([c]1ccccc1)([c]1ccccc1)[c]1ccccc1 [TPTH, triphenyltin hydroxide]",Disease Reduction by Year,[2],81% and 90% and 94% and 72% and 88^d %
"C=CCOC1=NS(=O)(=O)c2ccccc21 [PBZ, Probenazole]",% disease reduction in comparison to distilled water,[1],41.9 c %
CC/C=C\CC1C(=O)CCC1CC(=O)OC (centres unmarked) [methyl jasmonate],% disease reduction in comparison to distilled water,[1],49.9 d %
"O=C(O)c1ccccc1O [SA, salicylic acid]",activation of NPR1,[3],activated NPR1 by 48 hours
"CSC(=O)c1cccc2nnsc12 [ASM, Acibenzolar-S-methyl]",Glycol chitin plates,[4],3.09hed
same,Aniline blue and glycol chitin plates,[5],✓
same,biphasic hydrogen peroxide production,[6],did not induce biphasic hydrogen peroxide production
same,% Reduction at 21 DPC,[7],63.6% and 64.6%
same,Specific Activity Peroxidase,[8],71.4 changes in absorbance (470 nm) per minute per milligram of apoplastic protein
same,Disease Severity Index (%),[9],60.43% and 46.88% and 42.73 b % and 48.97% and 37.53 ab % and 47.31 b %
same,activation of NPR1,[3],activated NPR1 by 48 hours
same,total SA levels over a 48 hour sampling scheme versus time zero,[10],lack of SA accumulation
same,disease reduction,[11],50%
same,Specific Activity Beta-glycanase,[12],198.6 micrograms of glucose released per minute per milligram of apoplastic protein
same,Specific Activity Chitinase,[13],1.26 milligrams of N-acetyl-n-gluco
same,Aniline blue plates,[14],5.70a
